Experimental data reported in patent publication US20050124618A1, “Methods of modulating angiogenesis and cancer cell proliferation” (priority 2003, published 2005).
“Also recorded” adds a separate entry of the source.

Assays:
SAPK/JNK = experiment: Western blot of phospho-SAPK/JNK in U251 cells; assay type: cell-based, human; conditions: 10 μM HET0016, 24 and 48 hr
Method: They were then pelleted by centrifugation at 1,000 g for 5 min at 4° C. Cells were lysed by adding RIPA buffer [20 mM HEPES (pH 7.4), 100 mM NaCl, 1% Nonidet P-40, 0.1% SDS, 1% deoxycholic acid, 10% glycerol, 1 mM EDTA, 1 mM NaVO3, 50 mM NaF, and Protease Inhibitors Set 1 (Calbiochem, La Jolla, Calif.)]. Plates were then scraped and cells collected in a 1.5-ml centrifuge tube, followed by incubation on ice for 30 min. Homogenates of the cell suspension were centrifuged for 10 min at 14,000 g and 4° C.; the pellets were discarded and protein concentrations in the supernatant determined by bicinchoninic acid (BCA) protein assay.
Typically, 20 μg of protein was separated on a 14% Tris-glycine gel (Invitrogen) and electroblotted on a PVDF membrane (Biotrace, Bothell, Wash.). Membranes were blocked for 1 h at room temperature with blocking buffer [0.2% I-Block reagent (Tropix, Bedford, Mass.), 0.1% Tween-20 in […]] before incubation with primary antibodies in blocking buffer (overnight at 4° C.). […] Both phospho-tyrosine (Y102) and phospho-serine/threonine-Pro MPM2 were detected using a 1:2000 dilution of the corresponding antibodies, whereas phospho-p44/p42MAPK and phospho-SAPK/JNK were detected using 1:1000 antibody dilutions. […]

U251 human glioma cells = experiment: U251 cell proliferation assay (cell counting); assay type: cell-based
Method: Culture Conditions: Cells were routinely maintained in DMEM (Invitrogen) supplemented with 10% heat-inactivated fetal bovine serum (FBS), penicillin (10 IU/ml), streptomycin (10 μg/ml) and 10% non-essential amino acids (all purchased from Invitrogen). Cells were maintained at 37° C. in a humidified incubator containing 5% CO2. They were grown in medium containing 10% FBS, which was then replaced with serum-free medium where U251 cells grow exponentially. Treatments were initiated one day after serum removal.
Cell Proliferation Assays: Proliferation studies were performed with cultures plated at a density that ensured exponential growth for at least 5 days. Growth medium was generally replaced by serum-free medium 24 hr after plating. Cells were treated with various concentrations of a given compounds for 24 or 48 hr as described in the Methods. […] Organic solvent never exceeded 0.1% of total culture volume. Cells were harvested by exposure to 0.05% trypsin/EDTA and counted using a hemocytometer.

9L gliosarcoma tumors = experiment: Ki-67 immunohistochemistry of 9L tumor sections; assay type: in vivo, rat; conditions: chronic treatment with HET0016
Method: Assessment of tumor volume: The formalin fixed brains were placed in Coronal rat brain matrix, and sliced into 3-mm blocks. These blocks were then embedded in paraffin and […] thick sections were prepared. Sections prepared for H&E staining were placed onto uncoated slides. Sections for immunohistochemistry were placed onto positively charged super frosted slides. The serial sections were either stained with H&E for to assess the size of the tumor or immunohistochemically process for Ki-67 antigen to assess for the degree of proliferation.
The sections prepared for immunohistochemistry were deparaffinized by boiling the sections in a citric buffer (pH 6.0) for 10 minutes on a hot plate. The sections were cooled to room temperature, placed in a blocking buffer [2% normal serum, 1% BSA in PBS] for 1 hr, rinsed twice in a wash buffer [0.05 Tween-20 in PBS], blocked with hydrogen peroxide for 10 min and rinsed in wash buffer. The sections were then incubated for 30 min with rabbit polyclonal anti-ki67 antibody (Abcam Inc., Cambridge, Mass.; 1:200 dilution in 1.0% BSA in PBS). The sections were rinsed in wash buffer, incubated with biotinylated Goat anti-rabbit IgG (Vector Laboratories, Inc., Burlingame, Calif.; 1:500 in PBS) for 30 min, and rewashed. […]

CCCCc1ccc(N=CNO)c(C)c1 [HET0016, N-hydroxy-N′-(4-butyl-2 methylphenyl) formamidine]
phosphorylation of SAPK/JNK (SAPK/JNK): specifically inhibited phosphorylation
effect on EGF-induced proliferation of U251 cells (U251 human glioma cells; 200 ng/ml EGF + 10 μM HET0016, 48 hr): inhibited; also recorded: inhibits the effects of EGF
inhibition of proliferation of U251 cancer cells (FIG. 17) (U251 human glioma cells; 96-well plates, HET0016 for 48 hrs): about 50%
inhibition at 10 µM (U251 human glioma cells; Homo sapiens, U-251, 48 h): ~60%
concentration dependence of inhibition of U251 proliferation (U251 human glioma cells; various concentrations): suppressed by HET0016 in a concentration-dependent manner
number of mitotic (Ki67-positive) cells in the 9L tumor (9L gliosarcoma tumors): reduction in mitosis; also recorded: greatly reduced the number of mitotic cells
